# Assay results reported in patent US10251838B2, “Stereospecific lipids for locoregional therapy with long-term circulating stimuli-sensitive nanocarrier systems” (THERMOSOME GmbH, priority 2013, dated 2019).
# How the values were obtained:
# [1] = Phase transition temperatures (TM) of phospholipids; type: physicochemical; details: for TM (phase transition temperature): phosphatidylcholine/phosphatidyldiglycerol/phosphatidyltriglycerol/phosphatidyltetraglycerol with the given fatty acid pattern; for main (phase) transition temperature: pure lipid
# Method: By selecting a phosphatidylcholine having a suitable main transition temperature, the stimuli-sensitive nanocarrier system, in particular the thermosensitive liposome, can be customised. Table 1 gives main transition temperatures (TM) of phosphatidylcholines whose main transition temperatures are in the range of from 0 to 80° C.
# The fatty acid chains and their distribution over positions 1 and 2 of the glycerol molecule dominate the physical properties of the phospholipids. The phase transition temperature is independent of whether the phospholipid is the phosphatidylcholine, the phosphatidyldiglycerol, the phosphatidyltriglycerol or the phosphatidyltetraglycerol.
# [2] = Stability and circulation of liposomes in serum / bloodstream (animal experiments); type: in vivo; details: lipid alone in liposomes
# Method: By using phosphatidyloligoglycerols, it has been possible to prepare thermosensitive liposomes having a prolonged blood circulation time (WO 2002/064116 and WO 2004/026282). […] The majority of the liposomes remain in the blood circulation over a period of 2 hours and are therefore available for heat-controlled release of the active ingredient. Owing to the rapid release-kinetics of these liposomes with heat-induced release of the active ingredient within a few seconds, preferably <15 seconds, more preferably <10 seconds, a previously enclosed active ingredient can be released immediately by targeted heating of the liposomes to temperatures >39° C., preferably 40-42° C.
# The main transition temperature for (1,2-dipalmitoyl)-phosphatidylcholine is approximately 41° C. The purely physical requirements for clinical use in liposomes can accordingly be fulfilled by this phosphatidylcholine. However, the serum stability in the bloodstream of humans and animals that is required for clinical applications is lacking. (1,2-Dipalmitoyl)phosphatidylcholine alone is therefore not sufficient to achieve the therapeutic aims. […]
# Enclosed active ingredients are only released when the temperature is increased locally to about 42° C. […]
# [3] = tissue depth of 2000-3000 μm; cited from earlier work
Compound,TM (phase transition temperature) [1] [°C],other results
"CCCCCCCC/C=C\CCCCCCCC(=O)OC(COC(=O)CCCCCCCCCCCCCCC)COP(=O)([O-])OCC[N+](C)(C)C (stereo not drawn) [1-palmitoyl-2-oleoyl-, 1-palmitoyl-2-oleoylglycero-3-phosphocholine]",5,
"CCCCCCCCCCCCCC(=O)OCC(COP(=O)([O-])OCC[N+](C)(C)C)OC(=O)CCCCCCCCCCCCC (stereo not drawn) [1,2-dimyristoyl-, 1,2-dimyristoylglycero-3-phosphocholine]",23,main (phase) transition temperature [1]: 23 °C
"CCCCCCCCCCCCCCCCCC(=O)OC(COC(=O)CCCCCCCCCCCCCCC)COP(=O)([O-])OCC[N+](C)(C)C (stereo not drawn) [1-palmitoyl-2-stearoyl-, 1-palmitoyl-2-stearoylglycero-3-phosphocholine]",52,
"CCCCCCCCCCCCCCCC(=O)OCC(COP(=O)([O-])OCC[N+](C)(C)C)OC(=O)CCCCCCCCCCC (stereo not drawn) [1-palmitoyl-2-lauroyl-, 1-palmitoyl-2-lauroylglycero-3-phosphocholine]",11,
"CCCCCCCCCCCCCCCCCC(=O)OCC(COC(=O)CCCCCCCCCCCCC)OP(=O)([O-])OCC[N+](C)(C)C (stereo not drawn) [1-stearoyl-3-myristoyl-, 1-stearoyl-3-myristoylglycero-2-phosphocholine]",46,
"CCCCCCCCCCCCCC(=O)OCC(COC(=O)CCCCCCCCCCCCC)OP(=O)([O-])OCC[N+](C)(C)C [1,3-dimyristoyl-, 1,3-dimyristoylglycero-2-phosphocholine]",19,
"CCCCCCCC/C=C\CCCCCCCC(=O)OC(COC(=O)CCCCCCCCCCCCCCCCCCCCC)COP(=O)([O-])OCC[N+](C)(C)C (stereo not drawn) [1-behenoyl-2-oleoyl-, 1-behenoyl-2-oleoylglycero-3-phosphocholine]",14,
"CCCCCCCCCCCCCCCCCC(=O)OCC(COP(=O)([O-])OCC[N+](C)(C)C)OC(=O)CCCCCCCCCCCCCCCCC (stereo not drawn) [1,2-distearoyl-, 1,2-distearoylglycero-3-phosphocholine]",56,main (phase) transition temperature [1]: 56 °C
"CCCCCCCCCCCCCCCC(=O)OCC(COC(=O)CCCCCCCCCCCCCCC)OP(=O)([O-])OCC[N+](C)(C)C [1,3-dipalmitoyl-, 1,3-palmitoylglycero-2-phosphocholine]",39,
"CCCCCCCCCCCCCCCCCC(=O)OCC(COP(=O)([O-])OCC[N+](C)(C)C)OC(=O)CCCCCCCCCCCCC (stereo not drawn) [1-stearoyl-2-myristoyl-, 1-stearoyl-2-myristoylglycero-3-phosphocholine]",33,
"CCCCCCCCCCCCCCCCCCCCCCCC(=O)OCC(COP(=O)([O-])OCC[N+](C)(C)C)OC(=O)CCCCCCCCCCCCCCCCCCCCCCC (stereo not drawn) [1,2-dilignoceroyl-, 1,2-dilignoceroylglycero-3-phosphocholine]",80,
"CCCCCCCCCCCCCCCC(=O)OC(COC(=O)CCCCCCCCCCCCC)COP(=O)([O-])OCC[N+](C)(C)C (stereo not drawn) [1-myristoyl-2-palmitoyl-, 1-myristoyl-2-palmitoylglycero-3-phosphocholine]",37,
"CCCCCCCCCCCCCCCCCC(=O)OCC(COC(=O)CCCCCCCCCCCCCCCCC)OP(=O)([O-])OCC[N+](C)(C)C [1,3-distearoyl-, 1,3-distearoylglycero-2-phosphocholine]",53,
"CCCCCCCCCCCCCCCCCCCCCC(=O)OCC(COP(=O)([O-])OCC[N+](C)(C)C)OC(=O)CCCCCCCCCCCCCCCCCCCCC (stereo not drawn) [1,2-dibehenoyl-, 1,2-dibehenoylglycero-3-phosphocholine]",75,
"CCCCCCCCCCCCCCCCCC(=O)OCC(COP(=O)([O-])OCC[N+](C)(C)C)OC(=O)CCCCCCCCCCC (stereo not drawn) [1-stearoyl-2-lauroyl-, 1-stearoyl-2-lauroylglycero-3-phosphocholine]",17,
"CCCCCCCCCCCCCCCC(=O)OCC(COP(=O)([O-])OCC[N+](C)(C)C)OC(=O)CCCCCCCCCCCCCCC (stereo not drawn) [1,2-dipalmitoyl-, 1,2-dipalmitoylglycero-3-phosphocholine]",41,"main (phase) transition temperature ([1]; listed as (1,2-dipalmitoyl)-phosphatidylcholine): approximately 41 °C; main (phase) transition temperature ([1]; listed as dipalmitoyl-phosphatidylcholine): 41 °C; serum stability in the bloodstream of humans and animals [2]: lacking"
"CCCCCCCCCCCCCCCCCCCC(=O)OC[C@H](COP(=O)([O-])OCC[N+](C)(C)C)OC(=O)CCCCCCCCCCCCCCCCCCC [1,2-diarachinoyl-, 1,2-diarachinoylglycero-3-phosphocholine]",66,
"CCCCCCCCCCCCCCCCCC(=O)OCC(COP(=O)([O-])OCC[N+](C)(C)C)OC(=O)CCCCCCCCCCCCCCC (stereo not drawn) [1-stearoyl-2-palmitoyl-, 1-stearoyl-2-palmitoylglycero-3-phosphocholine]",48,
"CCCCCCCC/C=C\CCCCCCCC(=O)O[C@H](COC(=O)CCCCCCCCCCCCCCCCC)COP(=O)([O-])OCC[N+](C)(C)C [1-stearoyl-2-oleoyl-, 1-stearoyl-2-oleoyl-3-phosphocholine]",7,
"CCCCCCCCCCCCCCCC(=O)OCC(COP(=O)([O-])OCC[N+](C)(C)C)OC(=O)CCCCCCCCCCCCC (stereo not drawn) [1-palmitoyl-2-myristoyl-, 1-palmitoyl-2-myristoylglycero-3-phosphocholine]",27,
"CCCCCCCCCCCCCCCCCC(=O)OC(COC(=O)CCCCCCCCCCCCC)COP(=O)([O-])OCC[N+](C)(C)C (stereo not drawn) [1-myristoyl-2-stearoyl-, 1-myristoyl-2-stearoylglycero-3-phosphocholine]",42,
CO[C@@]12[C@H](COC(N)=O)C3=C(C(=O)C(C)=C(N)C3=O)N1C[C@@H]1N[C@@H]12 [mitomycin C],,dogs in which no further mitomycin C was detectable [3]: 18/24
